From US20140288052A1, “SUBSTITUTED BICYCLIC AZA-HETEROCYCLES AND ANALOGUES AS SIRTUIN MODULATORS” (GlaxoSmithKline, LLC, priority 2011, published 2014) come the findings set out here.

In experiment [1] the target is T1, SIRT1 (Homo sapiens, UniProt Q96EB6).
T1 sequence (Q96EB6 1-747): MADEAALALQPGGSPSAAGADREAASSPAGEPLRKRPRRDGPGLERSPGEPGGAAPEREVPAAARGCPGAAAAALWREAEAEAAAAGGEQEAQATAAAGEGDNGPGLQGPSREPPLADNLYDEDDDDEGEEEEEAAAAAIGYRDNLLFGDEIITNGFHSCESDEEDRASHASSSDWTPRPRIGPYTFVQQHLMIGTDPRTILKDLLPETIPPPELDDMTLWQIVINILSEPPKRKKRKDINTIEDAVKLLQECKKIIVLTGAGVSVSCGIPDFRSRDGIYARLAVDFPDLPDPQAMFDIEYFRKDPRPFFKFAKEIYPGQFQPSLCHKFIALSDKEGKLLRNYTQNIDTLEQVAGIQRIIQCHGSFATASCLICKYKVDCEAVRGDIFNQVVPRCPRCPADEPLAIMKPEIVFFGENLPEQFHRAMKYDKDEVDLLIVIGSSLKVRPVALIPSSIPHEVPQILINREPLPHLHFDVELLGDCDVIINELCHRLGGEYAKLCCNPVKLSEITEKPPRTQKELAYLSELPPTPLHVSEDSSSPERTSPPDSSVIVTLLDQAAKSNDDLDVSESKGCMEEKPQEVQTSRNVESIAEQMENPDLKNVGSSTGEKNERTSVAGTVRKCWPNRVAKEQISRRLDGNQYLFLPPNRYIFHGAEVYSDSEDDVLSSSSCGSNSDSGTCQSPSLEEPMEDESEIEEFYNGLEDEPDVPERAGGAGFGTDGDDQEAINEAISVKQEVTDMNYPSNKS
Nature of the experiment: TAMRA based mass spectrometry assay of SIRT1 deacetylase activation. In kind it is biochemical. Conditions: TAMRA peptide substrate; for TAMRA EC1.5 (μM): concentration that results in 150% activation of SIRT1; for TAMRA % Fold Act: percent maximum fold activation relative to control (100%). A digest of the protocol: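 E. coli-expressed N-terminal His-tagged human SIRT1 (10 nM) was incubated 25 min at 25 °C, pH 8 Tris-acetate buffer, with 0.5 μM TAMRA-labelled p53-derived acetyl-peptide, 120 μM NAD+ and varying compound; formic acid stop, mass-spec quantitation of deacetylated product vs DMSO controls. EC1.5 = concentration giving 150% activation.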

Experiment [2] concerns the target T1, SIRT1. The experiment can be described thus: Trp mass spectrometry assay of SIRT1 deacetylase activation. In kind it is biochemical. The conditions noted are these: Trp peptide substrate; for TRP EC1.5 (μM): concentration that results in 150% activation of SIRT1; for TRP % Fold Act: percent maximum fold activation relative to control (100%). The procedure, abridged:
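His-tagged human SIRT1 (E. coli-expressed, 10 nM) was incubated with 0.5 μM Ac-RHKK(Ac)W-NH2 peptide and 120 μM βNAD+ for 25 min at 25 °C in HEPES pH 7.5, 1500 mM NaCl, with varying compound; formic acid quench. OAADPR or deacetylated peptide was quantified by mass spectrometry against DMSO control. EC1.5 (150% activation) and percent maximum activation were derived.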

As to `O=C(Nc1ccnc2cc(-c3ccccc3C(F)(F)F)nn12)c1ncc(F)cc1F` [Compound 116], at SIRT1 [1], the “TAMRA EC1.5 (μM)” value is recorded as “A (EC1.5<1 μM)” and the “TAMRA % Fold Act” value is listed as “A (Fold activation≧350%)”. Moreover, at SIRT1 [2], the “TRP EC1.5 (μM)” value is “C (EC1.5>25 μM)” and the “TRP % Fold Act” value was “B (Fold Activation<350%)”.
With `O=C(Nc1ccnc2cc(-c3ccccc3C(F)(F)F)nn12)c1cnc(O)cn1` [Compound 117], on SIRT1 [1], the “TAMRA EC1.5 (μM)” value is “A (EC1.5<1 μM)” and the “TAMRA % Fold Act” value is listed as “A (Fold activation≧350%)”. For the same molecule, on SIRT1 [2], the “TRP EC1.5 (μM)” value is on record as “C (EC1.5>25 μM)” and the “TRP % Fold Act” value was “B (Fold Activation<350%)”.
